Legend:
[1] = system: allogene Hauttransplantate; assay type: in vivo, Ratte; conditions: for Toxizität / Unverträglichkeit der behandelten Tiere: skin graft model, Tab. I, Azathioprin in äquipotenter Dosis; for Wirksamkeit im Hauttransplantat-Modell (immunsuppressive Aktivität): qualitative statement
From the text: Die mit einer Stanze gewonnenen und vom Panniculus carnosus (einer Fett- und Muskelschicht) präparativ befreiten Transplantate werden in ebenfalls ausgestanzte Transplantatbetten des Empfängertiers plaziert. Die Transplantate werden mit speziellem Verbandmaterial bedeckt und mit einer Bandage fixiert. Endpunkt der Untersuchung ist der Tag, an dem 50 % der Tiere beide Transplantate vollständig abgestoßen haben. Die immunsuppressive Aktivität eines Wirkstoffs wird anhand der Verlängerung des normalen Transplantatüberlebens (Tage) der nicht behandelten Kontrolltiere bestimmt.

[2] = system: boviner Endothelzellen; test: In vitro migration/motility of endothelial cells under angiogenic stimulus (modified Boyden chamber); assay type: cell-based, bovine; conditions: for Anzahl der migrierten Zellen Kollagen-Fibronektin-Filter / Anzahl der migrierten Zellen Kollagen-Filter: Präinkubation + (Gangliosid-Mischung), innerhalb 8 Stunden, Mittelwert (± Standardabweichung) von 3 Versuchen
From the text: Es wurde daher eine Untersuchung mit Cefradin als Modellsubstanz auf eine die Gefäßbildung hemmende Aktivität in einem hierzu geeigneten in vitro Model durchgeführt (s. Tab. II). In diesem Test wird der Einfluß auf die Motilität boviner Endothelzellen unter angiogenem (gefäßbildendem) Stimulus bestimmt.

[3] = cited from earlier work

Compound | Toxizität / Unverträglichkeit der behandelten Tiere [1] | Ausbildung der Gefäßverbindung zwischen Transplantatbett und Transplantat ([1]; höchste Cefradin Dosis, in controls established by about the 5th postoperative day) | Wirksamkeit im Hauttransplantat-Modell (immunsuppressive Aktivität) [1] | Anzahl der migrierten Zellen Kollagen-Fibronektin-Filter ([2]; Cefradin 10 µg/ml Medium) | Anzahl der migrierten Zellen Kollagen-Filter ([2]; Cefradin 10 µg/ml Medium) | Anzahl der migrierten Zellen Kollagen-Fibronektin-Filter ([2]; Cefradin 100 µg/ml Medium) | Anzahl der migrierten Zellen Kollagen-Filter ([2]; Cefradin 100 µg/ml Medium) | Anzahl der migrierten Zellen Kollagen-Fibronektin-Filter ([2]; Cefradin 1000 µg/ml Medium) | Anzahl der migrierten Zellen Kollagen-Filter ([2]; Cefradin 1000 µg/ml Medium) | Aktivität auf die Motilität boviner Endothelzellen ([2]; concentration range corresponding to the low, already immunosuppressive in vivo doses) | Inhibition der Endothelmotilität ([2]; in hoher, bereits zytotoxischer Konzentration) | Nierentoxizität ([3]; im Tierversuch, länger dauernde hochdosierte Anwendung) | leukopenische Wirkung ([3]; in vivo)
Cn1cnc([N+](=O)[O-])c1Sc1ncnc2nc[nH]c12 [Azathioprin, 6[(1-Methylnitroimidazol-5-yl)thio]purin] | ausgeprägt toxisch |  |  |  |  |  |  |  |  |  |  |  | 
CC1=C(C(=O)O)N2C(=O)C(NC(=O)C(N)C3=CCC=CC3)C2SC1 (stereo not drawn) [Cefradin] | keinerlei Unverträglichkeit | unterdrückte | außerordentlich wirksam | 306 ± 74 | 173 ± 29 | 256 ± 24 | 104 ± 3 | 51 ± 6 | 23 ± 8 | nur geringfügige, wenn auch dosisabhängige Aktivität | komplette Inhibition | keine Nierentoxizität | nicht leukopenisch
CC1=C(C(=O)O)N2C(=O)[C@@H](NC(=O)[C@H](N)c3ccc(O)cc3)[C@H]2SC1 [Cefadroxil] |  |  | Unwirksamkeit |  |  |  |  |  |  |  |  |  | 

Source: patent EP0271023A2, “Use of dihydrophenylamino-acid derivatives and medicines containing them for immunomodulation and cytostasis” (GÖDECKE AKTIENGESELLSCHAFT, priority 1986, dated 1988)
